Literature values as cited in patent US20220142944A1, “TREATMENT OF SKIN DISORDERS WITH TOPICAL TAPINAROF-EGFR INHIBITOR COMPOSITIONS” (Sol-Gel Technologies Ltd., priority 2019, published 2022).

Experiments:
[1] = not given; remark: listed apart in the source
[2] = system: atopic dermatitis and plaque psoriasis
[3] = 1% tapinarof arm compared with 0.5% arm or vehicle

Question: Which solubility does the source give for `C#Cc1cccc(Nc2ncnc3cc(OCCOC)c(OCCOC)cc23)c1` [erlotinib] here?
Answer: Its solubility is “poorly soluble”.

Question: For `CC(C)c1c(O)cc(/C=C/c2ccccc2)cc1O` [tapinarof, 3,5-dihydroxy-4-isopropyl-trans-stilbene], which “rate of treatment-emergent adverse events” value ([1]; 93 of 165 with tapinarof, vehicle 34 of 82 [41%]) is on record?
Answer: The value was 56%.

Question: And the “intensity of treatment-emergent adverse events” value ([1]; in vivo)?
Answer: The value was “mild to moderate”.

Question: What about the efficacy [2, 3] of the same compound?
Answer: Its efficacy is “higher efficacy”.

Question: What about the onset of action [2, 3] of the same compound?
Answer: The onset of action was “quicker onset of action”.

Question: What about the “most frequent adverse events” value ([2]; topical tapinarof) of the same compound?
Answer: Its value is “folliculitis and contact dermatitis”.
